This experiment relates to B cell lymphoma cell lines. Kind of experiment: B cell lymphoma proliferation assay. In kind it is cell-based.
[1] abbreviates: Homo sapiens, DOHH-2, DOHH2 B cell lymphoma cell line, read-out: EC50 (μM) DOHH2.
[2] abbreviates: DHL4 B cell lymphoma cell line, read-out: EC50 (μM) DHL4.
The mark [3] stands for this setting: Homo sapiens, WSUDLCL2, WSU-DLCL2 B cell lymphoma cell line, read-out: EC50 (μM) WSU-DLCL2.

Molecules are shown by their SMILES. Where two headings read alike, the source gives them in different places.

Broadly, the EC50 is the concentration giving half of the maximal effect. For `C=CC(=O)Nc1cccc(Nc2nc(Nc3ccc4c(c3)N(C)CCO4)ncc2F)c1` [Compound I-126, N-(3-(2-(4-methyl-2,3-dihydrobenzo[1,4]oxazin-6-yl)amino-5-fluoropyrimidin-4-ylamino)phenyl)acrylamide], the EC50 under setting [1] is below 0.1 µM.

As to `C=CC(=O)N1Cc2ccc(Nc3nc(Nc4cccc(OC)c4)ncc3C(F)(F)F)cc2C1` [Compound I-132, 1-(5-(5-trifluoromethyl-2-(3-methoxyphenylamino)pyrimidin-4-yl)amino-1,3-dihydroisoindol-2-yl)2-propen-1-one], the EC50 under setting [2] was 1 to 10 µM and the EC50 under setting [1] was in the range of 1 to 10 µM.

`C=CC(=O)N1CCOc2ccc(Nc3nc(Nc4ccc5c(c4)CC(=O)N5)ncc3C(C)=O)cc21` [Compound I-129, 5-[5-Acetyl-4-(4-acryloyl-3,4-dihydro-2H-benzo[1,4]oxazin-6-ylamino)-pyrimidin-2-ylamino]-1,3-dihydro-indol-2-one]: the EC50 under setting [1] lay within 1 to 10 µM.

In the case of `COCCOc1ccc(Nc2ncc(F)c(Nc3cccc(NC(=O)/C=C/CN4CC[C@H](O)C4)c3)n2)cc1` [Compound I-88, (S,E)-N-(3-(5-fluoro-2-(4-(2-methoxyethoxy)phenylamino)pyrimidin-4-ylamino)phenyl)-4-(3-hydroxypyrrolidin-1-yl)but-2-enamide], the EC50 under setting [1] lay in the range of 1 to 10 µM.

As to `C=CC(=O)Nc1cccc(Oc2nc(Nc3ccc(OC)nc3)ncc2F)c1` [Compound I-217], the EC50 by setting is: under setting [1], above 10 µM; under setting [3], above 10 µM.

For `C=CC(=O)Nc1cccc(Nc2nc(Nc3ccc4c(cnn4C)c3)ncc2F)c1` [Compound I-155], the EC50 is, setting by setting: under setting [2], 1 to 10 µM; under setting [1], 1 to 10 µM; under setting [3], 1 to 10 µM.

In the case of `C=CC(=O)Nc1cccc(Nc2nc(Nc3ccc(OCCOC)cc3)ncc2C(C)=O)c1` [Compound I-124, N-(3-{5-Acetyl-2-[4-(2-methoxy-ethoxy)-phenylamino]-pyrimidin-4-ylamino}-phenyl)-acrylamide], under setting [1], the EC50 lay in the range of 1 to 10 µM.

`C=CC(=O)Nc1cccc(Nc2nc(Nc3ccc4c(c3)N(C(=O)C(F)(F)F)CCO4)ncc2F)c1` [Compound I-143, N-(3-(2-(4-trifluoroacetyl-2,3-dihydrobenzo[1,4]oxazin-6-yl)amino-5-fluoropyrimidin-4-ylamino)phenyl)acrylamide]: the EC50 under setting [2] was 1 to 10 µM, the half-maximal effective concentration (EC50) under setting [1] is 1 to 10 µM and the EC50 under setting [3] was in the range of 1 to 10 µM.

With `C=CC(=O)Nc1cccc(Nc2nc(Nc3ccc4c(c3)NCCO4)ncc2F)c1` [Compound I-174], the EC50 under setting [1] was 1 to 10 µM.

On to `C=CC(=O)N1CCOc2ccc(Nc3nc(Nc4ccc(OCCOC)cc4)ncc3C(C)=O)cc21` [Compound I-150, 1-(6-{5-Acetyl-2-[4-(2-methoxy-ethoxy)-phenylamino]-pyrimidin-4-ylamino}-2,3-dihydro-benzo[1,4]oxazin-4-yl)-propenone], for which the EC50 lay in the range of 1 to 10 µM under setting [2], 1 to 10 µM under setting [1] and 1 to 10 µM under setting [3].

For `C=CC(=O)Nc1cccc(N(C(=O)C=C)c2nc(Nc3ccc(OC)nc3)ncc2C#N)c1` [Compound I-171, N-(3-acrylamidophenyl)-N-(5-cyano-2-(6-methoxypyridin-3-ylamino)pyrimidin-4-yl)acrylamide], the EC50 under setting [1] was 1 to 10 µM.

`C=CC(=O)Nc1cccc(Nc2nc(Nc3cccc(OC)c3)ncc2C(N)=O)c1` [Compound I-210, 4-(3-acrylamidophenylamino)-2-(3-methoxyphenylamino)pyrimidine-5-carboxamide]: the EC50 under setting [1] was 1 to 10 µM and the EC50 under setting [3] is 1 to 10 µM.

Take `C=CC(=O)Nc1cccc(Nc2nc(Nc3cccc(OCCN(CC)CC)c3)ncc2F)c1` [Compound I-298]: the EC50 under setting [3] is 1 to 10 µM.

As for `C=CC(=O)N1Cc2ccc(Nc3nc(Nc4ccc(OC)nc4)ncc3F)cc2C1` [Compound I-165, 1-(5-(5-fluoro-2-(6-methoxypyridin-3-ylamino)pyrimidin-4-ylamino)isoindolin-2-yl)prop-2-en-1-one], the EC50 was 1 to 10 µM under setting [2], 1 to 10 µM under setting [1] and 1 to 10 µM under setting [3].

For `C=CC(=O)Nc1cccc(Nc2nc(Nc3ccc(OC)nc3)ncc2C2CC2)c1` [Compound I-167, N-(3-(5-cyclopropyl-2-(6-methoxypyridin-3-ylamino)pyrimidin-4-ylamino)phenyl)acrylamide], the EC50 under setting [1] was in the range of 1 to 10 µM.

With `C=CC(=O)Nc1cccc(Nc2nc(Nc3cccc(OCCCN4CCOCC4)c3)ncc2F)c1` [Compound I-208, N-(3-(5-fluoro-2-(3-(3-morpholinopropoxy)phenylamino)pyrimidin-4-ylamino)phenyl)acrylamide], the EC50 reads like this: under setting [1], 1 to 10 µM; under setting [3], 1 to 10 µM.

With `C=CC(=O)Nc1cccc(Nc2nc(Nc3ccc(OCCCS(C)(=O)=O)nc3)ncc2F)c1` [Compound I-80, N-(3-(5-fluoro-2-(6-(3-(methylsulfonyl)propoxy)pyridin-3-ylamino)pyrimidin-4-ylamino)phenyl)acrylamide], the EC50 under setting [1] was in the range of 0.1 to 1 µM.

`C=CC(=O)Nc1cccc(Nc2nc(Nc3ccc(OC)nc3)ncc2C(N)=O)c1` [Compound I-209, 4-(3-acrylamidophenylamino)-2-(6-methoxypyridin-3-ylamino)pyrimidine-5-carboxamide]: the EC50 under setting [1] is above 10 µM and the EC50 under setting [3] was in the range of 1 to 10 µM.

Regarding `C=CC(=O)Nc1cccc(Nc2nc(Nc3ccc(OC)c(OC)c3)ncc2F)c1` [Compound I-134, 4-(3acrylamidophenylamino)-5-fluoro-2-(3,4-dimethoxyphenylamino)-pyrimidine], the EC50 reads like this: under setting [2], below 0.1 µM; under setting [1], 0.1 to 1 µM.

In the case of `C=CC(=O)Nc1cccc(Nc2nc(Nc3ccc(OCC4CCN(C)CC4)cc3)ncc2F)c1` [Compound I-90, N-(3-(5-fluoro-2-(4-((1-methylpiperidin-4-yl)methoxy)phenylamino)pyrimidin-4-ylamino)phenyl)acrylamide], under setting [1], the EC50 fell in the range of 0.1 to 1 µM.

In the case of `C=CC(=O)Nc1cccc(Nc2nc(Nc3ccc4c(cnn4C(=O)OC(C)(C)C)c3)ncc2F)c1` [Compound I-151], the EC50 is, setting by setting: under setting [2], 1 to 10 µM; under setting [1], 1 to 10 µM.

Consider `C=CC(=O)Nc1cccc(Nc2nc(Nc3cccc(OC)c3)ncc2OC)c1` [Compound I-158, N-(3-(5-methoxy-2-(3-methoxyphenylamino)pyrimidin-4-ylamino)phenyl)acrylamide], for which the EC50 was 1 to 10 µM under setting [2], 1 to 10 µM under setting [1] and 1 to 10 µM under setting [3].

As for `C=CC(=O)Nc1cccc(Nc2nc(Nc3ccc(N(C)CCOC)nc3)ncc2F)c1` [Compound I-77, N-(3-(5-fluoro-2-(6-((2-methoxyethyl)(methyl)amino)pyridin-3-ylamino)pyrimidin-4-ylamino)phenyl)acrylamide], under setting [1], the EC50 was in the range of 0.1 to 1 µM.

Turning to `C=CC(=O)Nc1cc(Nc2nc(Nc3ccc(OCCOC)cc3)ncc2F)ccc1F` [Compound I-87, N-(2-fluoro-5-(5-fluoro-2-(4-(2-methoxyethoxy)phenylamino)pyrimidin-4-ylamino)phenyl)acrylamide], under setting [1], the EC50 is 1 to 10 µM.

Turning to `C=CC(=O)N1CCc2ccc(Nc3nc(Nc4ccc(OC)nc4)ncc3F)cc21` [Compound I-166, 1-(6-(5-fluoro-2-(6-methoxypyridin-3-ylamino)pyrimidin-4-ylamino)indolin-1-yl)prop-2-en-1-one], the EC50 lay within 1 to 10 µM under setting [2], 1 to 10 µM under setting [1] and 1 to 10 µM under setting [3].

For the origin of these results see patent US10596172B2 (Celgene CAR LLC, priority 2008, dated 2020).
